Experimental data published in EP0536208B1, “1,2-DIHYDRO-3H-DIBENZISOQUINOLINE-1,3-DIONE ANTICANCER AGENTS” (RESEARCH CORPORATION TECHNOLOGIES, INC., priority 1990, dated 1992).

What was measured:
M5-76 Sarcoma = assay: Tumor growth delay in mice, M5-76 sarcoma model; type: in vivo; details: -76 Sarcoma (Southern Research Institute)
Protocol: Corbett, T.H., et al., Cancer Chemo Rep., 5 (1975). Mammary 16-C Adenocarcinoma and M5-76 Sarcoma: Chunks of tumor (20-50 mg) are subcutaneously implanted into the flank of B6C3F1 female mice. Drugs (10-45 mg/kg) are dissolved in saline and injected intraperitoneally every four days for three times starting one day after tumor implantation. Tumors are measured bidimensionally as described above and tumor growth delay is calculated at times to reach 1.5 and 3.0 g of tumor mass.

[1] = system: P-388/ADR (adriamycin-Resis-tant); assay: Survival study in tumor-bearing mice, P-388/adriamycin resistant model; type: in vivo; details: 10^6 cells in DBA mice; 15 mg/kg; d1,5,9; intraperitoneally
Text: Thus, in the lower level resistant cell lines, such as the ten-fold mitomycin C resistant L1210 and the tenfold adriamycin resistant 2780 ovarian cancer, Compound 1 maintained its complete activity as shown in Table II. The anti-tumor activity of compounds of the present invention in in vivo mouse murine models were studied. 3) Survival Studies In Tumor-Bearing Mice: 3.1 P-388 Leukemia Modles: One million P-388 leukemia cells originally obtained from American Type Culture Collection (Rockville, MD) are implanted into the peritoneum of adult DBA-2J male mice (Jackson Laboratories, Bar Harbor, ME). Twenty four hours later, drugs diluted in physiological saline are injected intraperitoneally at a volume of 0.1 mL/10 g body weight. The mice (10/group) are then followed for survival daily and compared to untreated tumor bearing mice. […] The perpendicular widths of the tumors are measured by caliper thrice weekly and converted to an estimated tumor mass according to the formula: ((1 X W)^2)/(2)= grams of tumor. [formula] wherein • W = width of tumor • l = length of tumor Tumor growth delay is calculated as the difference in days for tumors in treated mice to reach an estimated mass 750 mg or 1.5 g compared to that in untreated controls: Days to reach 750 mg (Treated - Control) = Days of Tumor Growth Delay [formula] […]

CN(C)CCN1C(=O)c2cccc3cc4ccccc4c(c23)C1=O [Compound 1, 2-[2'-(dimethylamino)ethyl]-1,2-dihydro-3H-dibenz(deh)isoquinoline-1,3-dione]
Experimental Activity, Days of Tumor Growth Delay (M5-76 Sarcoma): 7 days | Experimental Activity, ILS (Percentage Increased Lifespan) [1]: 33 ILS
